{"source": "patent US20040254123A1", "about": "“Malignant cell differentiation inducer compositions and utilization of the same” (priority 2001, published 2004)", "key": {"[1]": {"tested_on": "human neuroblastoma IMR-32 cells", "experiment": "Pseudo-ganglion formation / differentiation of IMR-32 cells (phase-contrast microscope)", "assay_type": "cell-based", "text": "As [^3H] acetyl-coenzyme A (acetyl-CoA), a product manufactured by Amersham was used, and as propidium iodide, acridine orange and choline chloride, products manufactured by Sigma were used. As fetal bovine serum (hereinafter, abbreviated as FCS), a product manufactured by Cansera International was used.\nMorphological change of the cells, and the number of pseudo-ganglia formed were observed under a phase-contrast microscope (magnification: 200)."}, "rat glioma C6 cells [2]": {"tested_on": "rat glioma C6 cells", "experiment": "Number of surviving C6 cells after SBA treatment (trypan blue)", "assay_type": "cell-based", "conditions": "3 days treatment", "method": "Rat glioma C6 cells obtained from Japanese Cancer Research Resource Bank (JCRB) were inoculated on a medium in an amount of 1×10^5 cells/schale, cultured for 24 hours. […] Then, the cells were dyed with 0.2% trypan blue, then, the number of surviving cells was counted. The counted value of cell number represents average value±standard error (SE) of three continuous tests [*P<0.00301 and *P<0.00001 (in comparison with contrast)]. The counted value is shown as a bar graph in FIG. 3. This test was conducted in the absence of SBA, as a control test."}, "rat glioma C6 cells [3]": {"tested_on": "rat glioma C6 cells", "experiment": "Morphological change of C6 cells (phase-contrast microscope)", "assay_type": "cell-based", "conditions": "125 μg/ml SBA, 3 days"}, "[4]": {"tested_on": "patients having a cancer or tumor", "experiment": "Clinical trial, intravenous SBA in patients having a cancer or tumor", "assay_type": "in vivo, human", "text": "SBA can be administered, not only intravenously, but also into an abdominal cavity or subcutaneously, or orally."}, "[5]": {"tested_on": "patient having a cancer or tumor", "conditions": "intravenous 1.5 to 6 g per day per adult; cited from earlier work"}}, "data": [{"smiles": "O=C1O[C@H]([C@@H]2COC(c3ccccc3)O2)C(O)=C1O", "note": "(stereo partly drawn) [SBA, mono-sodium 5,6-O-benzylidene-L-ascorbate]", "values": [{"measurement": "survived cells induced to differentiate into neurocytes having neuritis", "setting": "[1]; 500 μg/ml SBA", "result": "20 to 30", "unit": "%"}, {"measurement": "morphological change / formation of pseudo-ganglia", "setting": "[1]; SBA treatment 48 hours", "result": "IMR-32 cells form pseudo-ganglia"}, {"measurement": "CD50 (proliferation of C6 cells)", "setting": "rat glioma C6 cells [2]", "result": 250, "unit": "µg/mL"}, {"measurement": "morphological change of C6 cells", "setting": "rat glioma C6 cells [3]", "result": "Formation of astrocytes was recognized"}, {"measurement": "effect on cancer in patient with attendant rheumatoid arthritis", "setting": "[4]; 3 mg/body once per day", "result": "the cancer reduces"}, {"measurement": "differentiation of cancer or tumor cells in patients", "setting": "[4]; intravenous 1 mg/body to 10 mg/body once per day per adult, 35 examples", "result": "induce differentiation of cancer cells or tumor cells into normal cells efficiently"}, {"measurement": "differentiation of malignant cells forming new blood vessel", "setting": "[4]; patient with augmented new blood vessel in eye and eyeground hemorrhage, intravenous 1 to 10 mg/body once per day", "result": "induces differentiation of malignant cells forming new blood vessel into normal cells"}, {"measurement": "total dimension of the carcinoma or tumor", "setting": "[5]", "result": "decreases"}]}]}
